Test results: patent US11065231B2, “Compounds and methods for the targeted degradation of interleukin-1 receptor- associated kinase 4 polypeptides” (Arvinas Operations, Inc., priority 2017, dated 2021)

Columns and labels:
IRAK4 [1] = target: T1, IRAK4 (Homo sapiens (Human), UniProt Q9NWZ3); assay: Western blot assay for assessing degradation of IRAK4 in MCF7 cells; type: cell-based; conditions: Table 5, IRAK4 degradation, 24 hour incubation; for DC50: read-out: IRAK4 DC50; for Dmax: read-out: IRAK4 Dmax (%)
Method: Western Blot Assay for Assessing Degradation of IRAK4.
MCF7 cells, purchased from ATCC (Manassas, Va.), were used at a passage range of 2-19. Cells were seeded at 50% confluency in 96-well plates at 180 μl/well in cell media (Dulbecco's Modified Eagle medium/nutrient F-12 Ham-10% Fetal Bovine Serum) and incubated overnight. The next morning, compounds were serially diluted and added (20 μl into 180 μl media) at a final DMSO concentration of 0.1%. Cells were rinsed with cell media and replaced with compounds in media, followed by incubation overnight. After a 24 hour incubation with compound, cell were harvested (90-100% confluent at harvest). Cells were then washed once with 100 μl of Dulbecco's hosphate-buffered saline and then lysed with 40 μl of lysis buffer (1×RIPA+HALT protease inhibitor+HALT phosphatase inhibitor) on ice for 10 minutes. Lysates were then cleaned by filtration in 1.2 µm filter plates followed by western blotting. For each sample, 30 μl of lysate were added to 10 μl of 4×LDS sample buffer, then denatured at 95° C. for 5 minutes in the thermal cycler and placed on ice. Fifteen μL of each sample were then loaded on 4-15% Tris/Glycine gels and run for 25 minutes at 250 (constant) volts in 1× Tris/Glycine buffer. Protein was transferred from gels to nitrocellulose using a BioRad Turbo dry-transfer unit with the Turbo/midi default program. All blots were rinsed with ddH2O and blocked for 1 hour at room temperature in 5% bovine serum albumin (BSA) in tris-buffered saline-Tween 20 (TBS-T) (0.1%) on rocker. Blots were exposed to primary antibody in 5% BSA in TBS-T (0.1%) overnight at 4° C. on rocker. Primary antibodies, diluted 1:1000 in […], were as follows: anti-IRAK4 (cat. #: ab119942, Abcam, Cambridge, Mass.), anti-IRAK1 (cat. #: CST 4504S, Cell Signaling Technology, Danvers, Mass.), and anti-Beta-actin (Cat. #: ab8227, Abcam, Cambridge, Mass.). Blots were then washed with TBS-T (0.1%) three times for 5 minutes on a rocker at room temperature. Secondary antibody (1:18,000 anti-rabbit-HRP and/or anti-mouse-HRP in 5% BSA in TBST (0.1%) was then added, and blots incubated at room temperature rocker for 1 hour. Blots were washed 3 times in TBS-T (0.1%) for 5 minutes at room temperature on the rocker. Signal was developed with Femto Max substrate for 5 minutes and blots read on a ChemiDoc. Percent degradation was assessed by comparing IRAK4 signal in compound vs. DMSO treated lysates.

IRAK4 [2] = target: T1, IRAK4; assay: Biochemical Z'-Lyte FRET assay for IRAK4 kinase inhibition; conditions: 2 nM enzyme, 1 mM ATP, 2 μM substrate
Method: Biochemical Assay for IRAK4 Kinase Inhibition.
A Z′-Lyte assay based on a fluorescence resonance energy transfer (FRET) readout was developed for measuring IRAK4-dependent phosphorylation of a FRET-peptide substrate as described by Thermo Fisher Scientific (Grand Island, N.Y.). At a starting concentration of 1.5 mM, the identified compounds were serially diluted with 100% dimethyl sulfoxide (DMSO) in 3-fold increments, into Greiner bio-one 96-well plates (cat. #: 650201, Greiner bio-one, Monroe, N.C.). Compounds were then transferred to intermediate Greiner bio-one 96-well plates and diluted 10-fold with Kinase assay buffer (25 mM HEPES, pH 7.5, 10 mM MgCl2, 10 mM MnCl2, 1 mM EGTA, and 0.01% Brij-35, 2 mM DTT). Three μL of the serially diluted compounds were then transferred in duplicate to low-volume 384-well black proxiplates (cat. #: 6008269; Perkin Elmer, Akron, Ohio), to give duplicate twelve-point concentration curves. Six μl of a 2.5× solution of IRAK4 enzyme (cat #: 40064, BPS Bioscience, San Diego, Calif.) in kinase buffer was added to each well, followed by a 10 minutes pre-incubation step. Reactions were initiated by adding 6 μl of a 2.5× substrate mix of ATP and Z′-Lyte Ser/Thr 7 peptide (cat. #: PV3180, Thermo Fisher Scientific, Grand Island, N.Y.) and proceeded at room temperature for 1 hour. The final concentration of key reagents in the 15 uL kinase reactions were 2 μM substrate, 2 nM enzyme, and 1 mM ATP, with dose responses starting at 30 μM compound. At the end of the kinase reactions, 5 μl of developing solution (as instructed in for cat. #: PV3180, Thermo Fisher Scientific, Grand Island, N.Y.) was added to each well and incubated at room temperature for 1 hour. All wells were read on an Envision 2105 Multilabel fluorescence plate reader (Perkin Elmer, Waltham, Mass.) at 400 nm excitation and 460 nm/530 nm emission. Plus and minus 100% inhibition controls were used to calculate percent inhibition and IC50 curves were generated using Graphpad Prism (La Jolla, Calif.).

T1 sequence (Q9NWZ3 whole entry): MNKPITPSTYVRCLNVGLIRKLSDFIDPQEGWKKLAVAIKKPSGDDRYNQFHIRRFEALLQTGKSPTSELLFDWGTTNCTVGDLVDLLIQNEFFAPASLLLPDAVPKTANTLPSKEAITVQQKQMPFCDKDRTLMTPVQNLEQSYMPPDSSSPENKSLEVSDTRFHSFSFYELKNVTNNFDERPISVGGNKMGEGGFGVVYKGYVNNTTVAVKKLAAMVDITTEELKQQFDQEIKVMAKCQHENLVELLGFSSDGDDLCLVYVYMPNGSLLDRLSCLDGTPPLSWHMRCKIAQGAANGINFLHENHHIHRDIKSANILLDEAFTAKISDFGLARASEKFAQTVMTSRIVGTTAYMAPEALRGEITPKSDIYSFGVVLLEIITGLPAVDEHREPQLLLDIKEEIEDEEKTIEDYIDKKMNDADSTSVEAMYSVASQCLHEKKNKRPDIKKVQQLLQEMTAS

SMILES: Cc1ncsc1-c1ccc(CNC(=O)[C@@H]2C[C@@H](O)CN2C(=O)[C@@H](NC(=O)COCCN2CCN(Cc3ccc4c(c3)nc(NC(=O)c3cccc(C(F)(F)F)c3)n4C3CCC(CO)CC3)CC2)C(C)(C)C)cc1 (mixture of isomers) [compound 11, (2S,4R)-4-hydroxy-1-((S)-2-(2-(2-(4-((1-((1SR,4SR)-4-(hydroxymethyl)cyclohexyl)-2-(3-(trifluoromethyl)benzamido)-1H-benzo[d]imidazol-5-yl)methyl)piperazin-1-yl)ethoxy)acetamido)-3,3-dimethylbutanoyl)-N-(4-(4-methylthiazol-5-yl)benzyl)pyrrolidine-2-carboxamide]
- DC50 (IRAK4 [1]): ≥ 1000 nM
- Dmax (IRAK4 [1]): > 70%
- IC50 (IRAK4 [2]): 300 to 1000 nM

SMILES: Cc1ncsc1-c1ccc(CNC(=O)[C@@H]2C[C@@H](O)CN2C(=O)[C@@H](NC(=O)COCCOCCN2CCN(Cc3ccc4c(c3)nc(NC(=O)c3cccc(C(F)(F)F)c3)n4[C@H]3CC[C@@H](CO)CC3)CC2)C(C)(C)C)cc1 (racemic) [compound 12, (2S,4R)-4-hydroxy-1-((S)-2-(2-(2-(2-(4-((1-((1SR,4SR)-4-(hydroxymethyl)cyclohexyl)-2-(3-(trifluoromethyl)benzamido)-1H-benzo[d]imidazol-5-yl)methyl)piperazin-1-yl)ethoxy)ethoxy)acetamido)-3,3-dimethylbutanoyl)-N-(4-(4-methylthiazol-5-yl)benzyl)pyrrolidine-2-carboxamide]
- DC50 (IRAK4 [1]): ≥ 1000 nM
- IC50 (IRAK4 [2]): 30 to 100 nM

SMILES: Cc1ncsc1-c1ccc(CNC(=O)[C@@H]2C[C@@H](O)CN2C(=O)[C@@H](NC(=O)COCCOCCOCCN2CCN(Cc3ccc4c(c3)nc(NC(=O)c3cccc(C(F)(F)F)c3)n4C3CCC(CO)CC3)CC2)C(C)(C)C)cc1 (mixture of isomers) [compound 13, (2S,4R)-1-((S)-2-(tert-butyl)-14-(4-((1-((1SR,4SR)-4-(hydroxymethyl)cyclohexyl)-2-(3-(trifluoromethyl)benzamido)-1H-benzo[d]imidazol-5-yl)methyl)piperazin-1-yl)-4-oxo-6,9,12-trioxa-3-azatetradecanoyl)-4-hydroxy-N-(4-(4-methylthiazol-5-yl)benzyl)pyrrolidine-2-carboxamide]
- DC50 (IRAK4 [1]): ≥ 1000 nM
- IC50 (IRAK4 [2]): 300 to 1000 nM

SMILES: O=C1CCC(N2C(=O)c3ccc(OCCN4CCN(Cc5ccc6c(c5)nc(NC(=O)c5cccc(C(F)(F)F)c5)n6C5CCC(CO)CC5)CC4)cc3C2=O)C(=O)N1 (centres unmarked) [compound 1, N-(5-((4-(2-((2-(2,6-dioxopiperidin-3-yl)-1,3-dioxoisoindolin-5-yl)oxy)ethyl)piperazin-1-yl)methyl)-1-((1s,4s)-4-(hydroxymethyl)cyclohexyl)-1H-benzo[d]imidazol-2-yl)-3-(trifluoromethyl)benzamide]
- Dmax (IRAK4 [1]): 30 to 50%

SMILES: O=C1CCC(N2C(=O)c3ccc(OCCN4CCC(CN5CCN(Cc6ccc7c(c6)nc(NC(=O)c6cccc(C(F)(F)F)c6)n7C6CCC(CO)CC6)CC5)CC4)cc3C2=O)C(=O)N1 (centres unmarked) [compound 10]
- Dmax (IRAK4 [1]): > 70%

SMILES: N#Cc1ccc2ncnc(N[C@H]3CC[C@@H](N4CCN(S(=O)(=O)CCOCCOCCOc5ccc6c(c5)C(=O)N(C5CCC(=O)NC5=O)C6=O)CC4)CC3)c2c1 (some centres unmarked) [compound 37]
- IC50 (IRAK4 [2]): ≥ 1000 nM

SMILES: N#Cc1ccc2ncnc(N[C@H]3CC[C@H](N4CCN(S(=O)(=O)CCOCCOCCOCCOc5ccc6c(c5)C(=O)N(C5CCC(=O)NC5=O)C6=O)CC4)CC3)c2c1 (some centres unmarked) [compound 38]
- IC50 (IRAK4 [2]): ≥ 1000 nM

SMILES: N#Cc1ccc2ncnc(N[C@H]3CC[C@@H](N4CCN(S(=O)(=O)CCOCCOCCOCCOc5ccc6c(c5)C(=O)N(C5CCC(=O)NC5=O)C6=O)CC4)CC3)c2c1 (some centres unmarked) [compound 39]
- IC50 (IRAK4 [2]): ≥ 1000 nM

SMILES: O=C1CCC(N2C(=O)c3ccc(OCCOCCOCCOCC4CCC(n5c(NC(=O)c6cccc(C(F)(F)F)c6)nc6cc(CN7CCCCC7)ccc65)CC4)cc3C2=O)C(=O)N1 (centres unmarked) [compound 43, N-(1-((1s,4s)-4-((2-(2-(2-((2-(2,6-dioxopiperidin-3-yl)-1,3-dioxoisoindolin-5-yl)oxy)ethoxy)ethoxy)ethoxy)methyl)cyclohexyl)-5-(piperidin-1-ylmethyl)-1H-benzo[d]imidazol-2-yl)-3-(trifluoromethyl)benzamide]
- DC50 (IRAK4 [1]): ≥ 1000 nM

SMILES: O=C1CCC(N2C(=O)c3ccc(OCCOC[C@H]4CC[C@@H](n5c(NC(=O)c6cccc(C(F)(F)F)c6)nc6cc(F)ccc65)CC4)cc3C2=O)C(=O)N1 (some centres unmarked) [compound 45]
- IC50 (IRAK4 [2]): ≥ 1000 nM

SMILES: COc1cccc(-n2c(NC(=O)c3cccc(C(F)(F)F)c3)nc3cc(CN4CCN(CCOCCOc5ccc6c(c5)C(=O)N(C5CCC(=O)NC5=O)C6=O)CC4)ccc32)c1 (centres unmarked) [compound 57, N-(5-((4-(2-(2-((2-(2,6-dioxopiperidin-3-yl)-1,3-dioxoisoindolin-5-yl)oxy)ethoxy)ethyl)piperazin-1-yl)methyl)-1-(3-methoxyphenyl)-1H-benzo[d]imidazol-2-yl)-3-(trifluoromethyl)benzamide]
- IC50 (IRAK4 [2]): ≥ 1000 nM

SMILES: COc1cc2nn(C3CCN(CCOCCOCCNc4cccc5c4C(=O)N(C4CCC(=O)NC4=O)C5=O)CC3)cc2cc1NC(=O)c1cccc(C(F)(F)F)n1 (centres unmarked) [compound 62, N-(2-(1-(2-(2-(2-((2-(2,6-dioxopiperidin-3-yl)-1,3-dioxoisoindolin-4-yl)amino)ethoxy)ethoxy)ethyl)piperadin-4-yl)-6-methoxy-2H-indazol-5-yl)-6-(trifluoromethyl)picolinamide]
- IC50 (IRAK4 [2]): < 30 nM

SMILES: COc1cc2nn(C3CCN(CCOCCOCCOCCNc4cccc5c4C(=O)N(C4CCC(=O)NC4=O)C5=O)CC3)cc2cc1NC(=O)c1cccc(C(F)(F)F)n1 (centres unmarked) [compound 64, N-(2-(1-(2-(2-(2-(2-((2-(2,6-dioxopiperidin-3-yl)-1,3-dioxoisoindolin-4-yl)amino)ethoxy)ethoxy)ethoxy)ethyl)piperadin-4-yl)-6-methoxy-2H-indazol-5-yl)-6-(trifluoromethyl)picolinamide]
- IC50 (IRAK4 [2]): < 30 nM

SMILES: O=C1CCC(N2C(=O)c3cccc(NCCOCCOCCN4CCN(Cc5ccc6c(c5)nc(NC(=O)c5cccc(C(F)(F)F)c5)n6C5CCC(CO)CC5)CC4)c3C2=O)C(=O)N1 (centres unmarked) [compound 66, N-(5-((4-(2-(2-(2-((2-(2,6-dioxopiperidin-3-yl)-1,3-dioxoisoindolin-4-yl)amino)ethoxy)ethoxy)ethyl)piperazin-1-yl)methyl)-1-((1s,4s)-4-(hydroxymethyl)cyclohexyl)-1H-benzo[d]imidazol-2-yl)-3-(trifluoromethyl)benzamide]
- Dmax (IRAK4 [1]): 50 to 70%

SMILES: O=C1CCC(N2C(=O)c3ccc(OC4CCC(CN5CCN(Cc6ccc7c(c6)nc(NC(=O)c6cccc(C(F)(F)F)c6)n7C6CCC(CO)CC6)CC5)CC4)cc3C2=O)C(=O)N1 (centres unmarked) [compound 67, N-(5-((4-((4-((2-(2,6-dioxopiperidin-3-yl)-1,3-dioxoisoindolin-5-yl)oxy)cycloethyl)methyl)piperazin-1-yl)methyl)-1-((1s,4s)-4-(hydroxymethyl)cyclohexyl)-1H-benzo[d]imidazol-2-yl)-3-(trifluoromethyl)benzamide]
- DC50 (IRAK4 [1]): 30 to 100 nM
- Dmax (IRAK4 [1]): > 70%
